≈ marks a conversion by molar mass, not a printed value. Calls of active or inactive are those of the source. The rule behind the calls is not given here.
Tests used:
[1] = Mutagenicity in Salmonella typhimurium by Ames test; type: toxicity; details: salmonella enterica subsp. enterica serovar typhimurium
in vivo = details: Sprague-Dawley, rat, po, 2 mg/kg, pH 2
[2] = molecular target: Protein arginine N-methyltransferase 5 (Homo sapiens) (UniProt O14744); test: In vivo inhibition of PRMT5 in athymic nude mouse xenografted with human HCT-116 cells harboring wildtype MTAP assessed as decrease in SDMA level in tumor at 30 mg/kg, po administered once daily for 4 days and measured 4 hrs post last dose by ELISA relative to control; type: functional, organism-based; details: time 4.0 day
[3] = Antitumor activity against MTAP-deleted human U-87 MG cells xenografted in female athymic nude mouse model assessed as tumor growth inhibition at 300 mg/kg, po administered once daily for 14 days and measured 24 hrs post last dose relative to control; type: functional, U-87MG ATCC; details: 360 h, time 15 day, read-out: TGI
[4] = Passive permeability in MDCK-II cells at 0.1 to 10 uM; type: ADME, cell-based, Canis lupus familiaris; details: dog, dose 0.1-10 µM, read-out: permeability
[5] = Protein binding in mouse plasma assessed as unbound fraction by ultracentrifugation; details: plasma
[6] = Solubility of compound in PBS buffer at pH 7.4
HCT-116 [7] = test: Antitumor activity against MTAP-deleted human HCT-116 cells xenografted in female athymic nude mouse model assessed as tumor growth inhibition at 100 mg/kg, po administered once daily for 14 days relative to control; type: functional; details: HCT-116, 336 h, time 14 day, read-out: TGI
[8] = Unbound brain-to-plasma concentration ratio in female Sprague-Dawley rat at 25 mg/kg, po administered as single dose; type: ADME, organism-based; details: read-out: K(p,uu,brain)
[9] = Metabolic stability in mouse liver microsomes assessed as intrinsic clearance at 0.5 uM incubated for 40 mins in presence of NADPH; type: ADME, Microsome; details: read-out: CLH
[10] = molecular target: Protein arginine N-methyltransferase 5 (Homo sapiens) (UniProt O14744); test: In vivo inhibition of PRMT5 in athymic nude mouse xenografted with human HCT-116 cells harboring wildtype MTAP assessed as decrease in SDMA level in tumor at 100 mg/kg, po administered once daily for 4 days and measured 4 hrs post last dose by ELISA relative to control; type: functional, organism-based; details: time 4.0 day
BXPC-3 [11] = test: Antitumor activity against MTAP-deleted human BXPC-3 cells xenografted in athymic nude mouse model assessed as tumor growth inhibition at 10 mg/kg, po administered once daily for 26 days and measured 24 hrs post last dose relative to control; type: functional; details: BXPC-3, 648 h, time 27 day, read-out: TGI
[12] = molecular target: Protein arginine N-methyltransferase 5 (Homo sapiens) (UniProt O14744); test: In vivo inhibition of PRMT5 in athymic nude mouse xenografted with MTAP-deleted human HCT-116 cells assessed as decrease in SDMA level in tumor at 100 mg/kg, po administered once daily for 4 days and measured 4 hrs post last dose by ELISA relative to control; type: functional, organism-based; details: time 4.0 day
[13] = molecular target: Protein arginine N-methyltransferase 5 (Homo sapiens) (UniProt O14744); test: In vivo inhibition of PRMT5 in athymic nude mouse xenografted with MTAP-deleted human HCT-116 cells assessed as decrease in SDMA level in tumor at 30 mg/kg, po administered once daily for 4 days and measured 4 hrs post last dose by ELISA relative to control; type: functional, organism-based; details: time 4.0 day
[14] = Unbound brain-to-plasma concentration ratio in male Sprague-Dawley rat at 25 mg/kg, po administered as single dose; type: ADME, organism-based; details: read-out: K(p,uu,brain)
DOHH-2 = test: Antiproliferative activity against human DOHH-2 cells assessed as effect on cell viability; type: functional, cell-based
HCT-116 [15] = test: Antiproliferative activity against human HCT-116 cells harboring wildtype MTAP assessed as effect on cell viability incubated for 6 days by Celltiter-Glo luminescent cell viability assay; type: functional, cell-based; details: HCT-116, 144 h
[16] = molecular target: T1, Nuclear receptor subfamily 1 group I member 2 (Homo sapiens, UniProt O75469); test: Activation of human PXR in human HepG2 cells co-transfected with CYP3A4-luciferase at 10 uM incubated for 1 day relative to control; details: hepg2, 24 h
T1 sequence (O75469 whole entry): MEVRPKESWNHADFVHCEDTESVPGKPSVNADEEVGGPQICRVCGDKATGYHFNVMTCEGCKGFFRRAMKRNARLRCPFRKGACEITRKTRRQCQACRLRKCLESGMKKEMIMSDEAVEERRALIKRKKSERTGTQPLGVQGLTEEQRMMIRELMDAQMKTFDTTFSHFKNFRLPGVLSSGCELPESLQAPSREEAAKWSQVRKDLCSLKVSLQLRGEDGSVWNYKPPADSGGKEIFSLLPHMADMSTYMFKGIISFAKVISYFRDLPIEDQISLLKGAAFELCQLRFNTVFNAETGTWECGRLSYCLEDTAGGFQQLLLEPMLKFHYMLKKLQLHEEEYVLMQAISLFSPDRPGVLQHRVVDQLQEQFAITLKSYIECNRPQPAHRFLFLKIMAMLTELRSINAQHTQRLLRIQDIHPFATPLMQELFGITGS

BXPC-3 [17] = test: Antitumor activity against MTAP-deleted human BXPC-3 cells xenografted in athymic nude mouse model assessed as tumor growth inhibition at 30 mg/kg, po administered once daily for 26 days and measured 24 hrs post last dose relative to control; type: functional; details: BXPC-3, 648 h, time 27 day, read-out: TGI
[18] = Unbound clearance in CD-1 mouse at 1 mg/kg, iv; type: ADME, organism-based; details: in vivo
[19] = molecular target: Protein arginine N-methyltransferase 5 (Homo sapiens) (UniProt O14744); test: In vivo inhibition of PRMT5 in female athymic nude mouse xenografted with MTAP-deleted human U-87 MG cells assessed as decrease in SDMA level in tumor at 10 mg/kg, po administered once daily for 14 days and measured 2 to 8 hrs post last dose by ELISA relative to control; type: functional, organism-based; details: time 338-344 hrs
[20] = molecular target: Protein arginine N-methyltransferase 5 (Homo sapiens) (UniProt O14744); test: Binding affinity to PRMT5 (unknown origin) assessed as occupancy in presence of MTA by SPR analysis relative to control
U-87 MG = test: Antiproliferative activity against human U-87 MG cells assessed as effect on cell viability; type: functional, cell-based, U-87MG ATCC
[21] = Metabolic stability in rat liver microsomes assessed as intrinsic clearance; type: ADME, Microsome; details: time 40 min, read-out: CLH
[22] = Efflux ratio in MDCK-II cells; details: dog
CYP3A4 = CYP3A4 (Homo sapiens, UniProt P08684); test: in vitro; details: human liver microsomes, probe midazolam
[23] = molecular target: Protein arginine N-methyltransferase 5 (Homo sapiens) (UniProt O14744); test: In vivo inhibition of PRMT5 in athymic nude mouse xenografted with MTAP-deleted human HCT-116 cells assessed as decrease in SDMA level in tumor at 3 mg/kg, po administered once daily for 4 days and measured 4 hrs post last dose by ELISA relative to control; type: functional, organism-based; details: time 4.0 day
BXPC-3 [24] = test: Antiproliferative activity against human BXPC-3 cells assessed as effect on cell viability; type: functional, cell-based
HCT-116 [25] = test: Antitumor activity against MTAP-deleted human HCT-116 cells xenografted in female athymic nude mouse model assessed as tumor growth inhibition at 30 mg/kg, po administered once daily for 14 days relative to control; type: functional; details: HCT-116, 336 h, time 14 day, read-out: TGI
[26] = Metabolic stability in dog hepatocytes assessed as intrinsic clearance measured per 10^6 cells; type: ADME, cell-based, Canis lupus familiaris, Hepatocyte; details: read-out: CLH
HCT-116 [27] = test: Antitumor activity against human HCT-116 cells harboring wildtype MTAP xenografted in female athymic nude mouse model assessed as tumor growth inhibition at 3 to 100 mg/kg, po administered once daily for 14 days; type: functional, organism-based; details: dose 3-100 mg/kg, time 14.0 day
[28] = Unbound CSF-to-plasma concentration ratio in female Sprague-Dawley rat at 25 mg/kg, po administered as single dose; type: ADME, organism-based

Chain of Protein arginine N-methyltransferase 5 (Homo sapiens) (O14744 whole entry): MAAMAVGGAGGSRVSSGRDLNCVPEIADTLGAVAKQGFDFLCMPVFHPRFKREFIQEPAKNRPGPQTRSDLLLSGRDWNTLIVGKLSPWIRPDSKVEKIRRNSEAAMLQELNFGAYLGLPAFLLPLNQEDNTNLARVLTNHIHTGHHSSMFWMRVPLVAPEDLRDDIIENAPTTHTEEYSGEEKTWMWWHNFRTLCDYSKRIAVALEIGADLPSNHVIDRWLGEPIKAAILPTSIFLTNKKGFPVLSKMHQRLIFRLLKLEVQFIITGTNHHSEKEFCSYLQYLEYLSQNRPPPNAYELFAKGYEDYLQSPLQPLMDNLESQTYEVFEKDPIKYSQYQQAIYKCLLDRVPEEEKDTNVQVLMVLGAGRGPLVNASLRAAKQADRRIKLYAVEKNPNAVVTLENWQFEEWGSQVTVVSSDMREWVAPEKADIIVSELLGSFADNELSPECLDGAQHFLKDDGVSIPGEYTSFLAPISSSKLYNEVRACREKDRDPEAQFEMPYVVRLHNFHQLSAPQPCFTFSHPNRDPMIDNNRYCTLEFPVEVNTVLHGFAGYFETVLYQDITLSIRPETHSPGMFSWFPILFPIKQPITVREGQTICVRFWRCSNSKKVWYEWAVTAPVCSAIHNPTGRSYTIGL
Chain of CYP3A4 (P08684 whole entry): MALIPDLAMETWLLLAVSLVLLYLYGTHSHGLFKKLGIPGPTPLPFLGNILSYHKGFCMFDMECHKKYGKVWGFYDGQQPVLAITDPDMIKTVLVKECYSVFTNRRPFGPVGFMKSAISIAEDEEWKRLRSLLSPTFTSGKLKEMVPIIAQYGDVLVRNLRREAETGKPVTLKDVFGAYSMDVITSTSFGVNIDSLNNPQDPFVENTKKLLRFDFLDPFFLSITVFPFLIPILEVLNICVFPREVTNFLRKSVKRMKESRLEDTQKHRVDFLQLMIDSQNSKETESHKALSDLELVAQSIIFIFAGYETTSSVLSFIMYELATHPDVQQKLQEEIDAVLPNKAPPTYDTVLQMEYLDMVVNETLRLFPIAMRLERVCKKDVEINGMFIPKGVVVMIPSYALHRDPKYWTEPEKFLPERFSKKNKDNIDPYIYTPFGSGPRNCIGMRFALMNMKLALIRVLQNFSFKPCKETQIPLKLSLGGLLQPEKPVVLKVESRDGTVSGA

bioavailability (in vivo): 60% | inhibition [2]: 48% | Papp at up to 10 µM [4]: 33 ×10⁻⁶ cm/s | fraction unbound [5]: 0.07 | solubility [6]: 257 µM (≈ 114 µg/mL) | Kp uu [8]: 0.14 | microsomal CLint at 0.5 µM [9]: 37 µL/min/mg | inhibition [10]: 79% | inhibition [12]: 71% | inhibition [13]: 72% | Kp uu [14]: 0.15 | IC50 (HCT-116 [15]): 4330 nM | Activity [16]: < 20% | CL free [18]: 142 mL/min/kg | inhibition [19]: 68% | Occ [20]: 70% | IC50 (U-87 MG): 357 nM | microsomal CLint at 0.5 µM [21]: 123 µL/min/mg | efflux ratio [22]: 3 | inhibition at 30 min, 10 µM (CYP3A4): < 20% | inhibition [23]: 69% | IC50 (BXPC-3 [24]): 218 nM | hepatocyte CLint [26]: 5 µL/min/1e6 cells | Kp uu [28]: 0.2
SMILES: Nc1nc2cnc(C(=O)N3CCOC[C@@H]3c3ccc(C(F)(F)F)cc3)cc2c2c1COC2
Activity [1]: Non-toxic | inhibition in vivo at 300 mg/kg [3]: 88% | inhibition in vivo at 100 mg/kg (HCT-116 [7]): 87% | inhibition in vivo at 10 mg/kg (BXPC-3 [11]): 19% | IC50 (DOHH-2): 51 nM | inhibition in vivo at 30 mg/kg (BXPC-3 [17]): 61% | inhibition in vivo at 30 mg/kg (HCT-116 [25]): 74% | Activity (HCT-116 [27]): inactive

From ChEMBL document CHEMBL6109134, “Discovery of AMG 193, an MTA-Cooperative PRMT5 Inhibitor for the Treatment of MTAP-Deleted Cancers” (J Med Chem, 2025)
